Values quoted from earlier work as cited in patent US8283364B2, “Compounds which have activity at M1 receptor and their uses in medicine” (Glaxo Group Limited, priority 2005, dated 2012).

Experiments:
[1] = tested on: A10 and A9 dopamine cell firing; settings: A10 versus A9
[2] = tested on: psychotic symptoms
[3] = tested on: dopamine driven behaviours; settings: amphetamine induced locomotion in rats, apomorphine induced climbing in mice, turning in 6-OH-DA lesioned rats, amphetamine-induced motor unrest in monkeys

CCCCCCOc1nsnc1C1=CCCN(C)C1 [xanomeline]
effect on dopamine cell firing [1]: inhibit A10, but not A9, dopamine cell firing | effect on psychotic symptoms (suspiciousness, hallucinations, delusions) ([2]; Alzheimer's patients): reduce psychotic symptoms | side effects ([2]; ascribed to relatively non-selective nature of the compound): dose-limiting peripheral cholinergic side effects | effect on dopamine driven behaviours [3]: reverses a number of dopamine driven behaviours
